Experimental data as given in publication PMC8764033, “Single-molecule analysis of specificity and multivalency in binding of short linear substrate motifs to the APC/C” (Nature Communications, 2022).
Several values for one entry are separate records, joined by “and”; a condition that tells them apart may be missing. Identical values can stand only once. Where a SMILES comes first, the peptide text is derived from it.

Target: T1, APC/C^Cdc20 (Saccharomyces cerevisiae, UniProt P26309+P53068)
T1 construct: APC/C was purified from yeast cells; made in house; host or cells: APC/C from S. cerevisiae W303 strain NHY13 (Cdc16-TAP, Apc1-GFP, cdh1 deleted); Cdc20 from Sf9 (baculovirus)
Experiment: SMOR assay, yeast APC/C^Cdc20
Assay type: binding
Conditions: for mean dwell time: representative of two independent experiments, ± SE, ligand ≤1 nM, buffer C + BSA
Method: Yeast strains were derivatives of W303 and are listed in Supplementary Table 2. For APC/C purification, we used a strain carrying Cdc16-TAP and lacking Cdh1 (DOM1126); in most experiments, the strain also carried Apc1-GFP (NHY13). Yeast were grown in YPD media to OD600 = 0.8, collected and flash-frozen. Cells were lysed by bead beating in lysis buffer A (50 mM HEPES pH 7.5, 150 mM KCl, 10% glycerol, 0.2% Triton X-100, 63 µM B-glycerophosphate, 48 µM sodium fluoride, 1 µg ml^−1 pepstatin A, 1 µg ml^−1 leupeptin, 1 µg ml^−1 aprotinin, 1 mM PMSF, 1 mM DTT, 0.5 mM EDTA) and APC/C was purified using magnetic IgG beads. The beads were washed using wash buffer A (20 mM HEPES pH 7.5, 150 mM KCl, 10% Glycerol, 0.05% Triton X-100). After incubation with purified Cdh1 or Cdc20, the APC/C was cleaved off the beads with TEV protease in wash buffer A with 0.05% Tween-20 (for single-molecule studies) or 0.05% Triton X-100 (for ensemble assays such as ubiquitylation) and used immediately.
For all SMOR experiments, 24 × 50 mm high precision glass coverslips (Bioscience Tools) and drilled microscope slides were passivated with a combination of PEG and PEG-biotin (coverslips) or PEG only (slides) following a previously published protocol for SiMPull[31]. Reaction chambers (~20 µl) were created using double-sided tape and epoxy. Protein was immobilized on the surface with 0.2 mg ml^−1 NeutrAvidin in buffer C (20 mM HEPES pH 7.5, 150 mM KCl, 10% glycerol, 0.05% Tween-20, 1 mM DTT). Excess NeutrAvidin was washed away and incubated with either biotin-conjugated mouse monoclonal anti-Strep-Tag II antibody (LSBio, Cat. No. LS-C203632-100) or biotin-conjugated rabbit polyclonal anti-GFP antibody (Rockland, Cat. No. 600-406-215) diluted in buffer C + BSA (0.1 mg ml^−1; Molecular Biology Grade Bovine Serum Albumin). Activator WD40 and activated APC/C (typically 50 µl containing about 65 ng APC/C, of which only a small fraction is immobilized on the glass) were immobilized using anti-Strep-Tag II, while APC/C alone was immobilized with anti-GFP. SMOR results were similar when performed in the buffer (wash buffer B) used in polarization anisotropy.
To capture dynamic protein–protein interactions, dye-labeled substrate diluted in buffer C + BSA was added to the chamber containing immobilized proteins. Interactions were imaged by TIRF microscopy as described below. For optimal signal-to-noise ratio, peptide concentration was no greater than 1 nM. Protein substrates included Hsl1 aa 667–872 and a C-terminal HaloTag followed by a TAP tag, and were produced by translation in rabbit reticulocyte lysates using TnT Quick Coupled Transcription/Translation System (Promega) (see Supplementary Table 5 for plasmids). Protein was purified with magnetic IgG beads and labeled on the bead with JF549 or JF646 dye so that unbound dye could be washed away. Purified dye-labeled protein was then cleaved from the beads using TEV protease. Before adding substrate to the reaction chamber, oxygen scavenging reagents were added (10 nM protocatechuate-3,4-dioxygenase, 2.5 mM protocatechuic acid, and 1 mM Trolox)[41]. A detailed description of the SMOR analysis pipeline is found in Supplementary Note 1.
Microscopy was performed with a Nikon Eclipse TE2000-E with Perfect Focus with a 100 × 1.49na oil, Apo TIRF DIC N2, 0.13-0.2, WD0.12 objective. Movies were recorded using the Andor iXon DU-897E-CSO. For visualizing GFP-tagged protein, a 491 nm laser was used with an ET525/50 (Chroma) filter for emission. For visualizing JF549-labeled substrate, a 561 nm laser was used with an ET595/50 (Chroma) filter for emission. For visualizing all Cy5-labeled peptides and JF646-labeled substrates, a 640 nm laser was used with an ET685/70 filter (Chroma) for emission. Initially, for each substrate tested, we acquired movies at multiple intervals to deduce the optimal interval to decrease bleaching. µManager version 2.0 was used to control the microscope and record time-lapse movies.

[1] = Supplementary Table 1, replicate 1
[2] = Supplementary Table 1, replicate 2
[3] = Supplementary Table 1, replicate 1 (movie listed first)
[4] = Supplementary Table 1, replicate 2 (movie listed second)

With “LPKATRKALGTVNRATEKSVK-K(Cy5) [AurKB D box, Cy5-labeled D box peptide of Aurora B kinase]” the “binding (in words)” value was “No binding”, the “Dwell Time (in words)” value [1] was “no binding” and the “Dwell Time (in words)” value [2] was “no binding”.

For `CC[C@H](C)[C@H](NC(=O)[C@H](CC(=O)O)NC(=O)[C@H](CO)NC(=O)[C@H](C)NC(=O)[C@H](C)NC(=O)[C@H](C)NC(=O)[C@H](C)NC(=O)[C@H](CCCCN)NC(=O)[C@@H]1CCCN1C(=O)[C@H](CCCCN)NC(=O)[C@H](CCC(N)=O)NC(=O)[C@@H](N)CCC(=O)O)C(=O)N[C@H](C(=O)N[C@@H](C)C(=O)N[C@@H](CO)C(=O)N[C@@H](Cc1ccccc1)C(=O)N[C@@H](CC(N)=O)C(=O)N[C@@H](CCCCN)C(=O)N[C@@H](CCSC)C(=O)N[C@@H](CC(N)=O)C(=O)N[C@@H](CCCCN)C(=O)O)[C@@H](C)O` [Hsl1 D box mutant] (H-EQKPKAAAASDITASFNKMNK-OH; N-terminus and C-terminus assumed), the “binding (in words)” value was “No binding”, the “Dwell Time (in words)” value [1] was “no binding” and the “Dwell Time (in words)” value [2] was “no binding”.

In the case of “SKAAQFMLYEETAEERNI-K(Cy5) [Acm1 ABBA, Cy5-labeled Cdh1-specific ABBA motif from pseudosubstrate yeast protein Acm1]”, the “binding (in words)” value is reported as “No binding”, the “Dwell Time (in words)” value [1] is reported as “no binding” and the “Dwell Time (in words)” value [2] is reported as “no binding”.

In the case of `CC(C)C[C@H](NC(=O)[C@H](C)NC(=O)[C@H](CCCNC(=N)N)NC(=O)[C@H](CCCNC(=N)N)NC(=O)[C@@H]1CCCN1C(=O)[C@H](CCCCN)NC(=O)[C@H](CO)NC(=O)[C@H](CC(=O)O)NC(=O)[C@@H](N)CCC(N)=O)C(=O)N[C@H](C(=O)N[C@@H](CC(=O)O)C(=O)N[C@H](C(=O)N1CCC[C@H]1C(=O)N[C@H](C(=O)N[C@@H](CC(N)=O)C(=O)N[C@@H](CC(N)=O)C(=O)N[C@@H](CC(N)=O)C(=O)N1CCC[C@H]1C(=O)N[C@@H](CC(C)C)C(=O)N[C@@H](CO)C(=O)N[C@@H](CCC(N)=O)C(=O)N[C@@H](CCCCN)C(=O)O)C(C)C)C(C)C)[C@@H](C)O` [Clb5 D box] (H-QDSKPRRALTDVPVNNNPLSQK-OH; N-terminus and C-terminus assumed), the “Dwell Time” value [3] is reported as 0.179 ± 0.008 s, the “Dwell Time” value [4] is reported as 0.207 ± 0.008 s and the mean dwell time is reported as 0.207 ± 0.008 s and 0.207 s.

In the case of `CC[C@H](C)[C@H](NC(=O)[C@H](Cc1ccccc1)NC(=O)[C@H](CO)NC(=O)[C@H](CCCCN)NC(=O)[C@H](CO)NC(=O)[C@H](CCCNC(=N)N)NC(=O)[C@H](CC(N)=O)NC(=O)[C@H](CC(N)=O)NC(=O)[C@H](CC(=O)O)NC(=O)[C@H](CCCCN)NC(=O)[C@H](C)NC(=O)[C@H](C)NC(=O)[C@H](CC(C)C)NC(=O)[C@@H]1CCCN1C(=O)[C@H](CC(C)C)NC(=O)[C@H](CCCNC(=N)N)NC(=O)CNC(=O)[C@H](CCC(N)=O)NC(=O)[C@H](CCC(N)=O)NC(=O)[C@H](CCC(N)=O)NC(=O)[C@H](C)N)C(=O)N[C@@H](CCCCN)C(=O)O` [ySecurin D box] (H-AQQQGRLPLAAKDNNRSKSFIK-OH; N-terminus and C-terminus assumed), the “Dwell Time” value [3] is reported as 1.859 ± 0.041 s, the “Dwell Time” value [4] is reported as 1.870 ± 0.035 s and the mean dwell time is reported as 1.87 ± 0.04 s and 1.87 s. For the same molecule, the “fold higher affinity for APC/C^Cdc20” value (vs APC/C^Cdh1) was 15 fold.

“LIYVDKENGEPGTR-K(Cy5) [hSecurin KEN, Cy5-labeled KEN box peptide of human securin/Pttg1]” was tested, and the “binding (in words)” value was “No binding”, the “Dwell Time (in words)” value [1] was “no binding” and the “Dwell Time (in words)” value [2] was “no binding”.
